The structures appear in SMILES notation. pEC50: −log10 of the molar value.

Sequence of LXRβ (P55055 whole entry, the tested form may be a part): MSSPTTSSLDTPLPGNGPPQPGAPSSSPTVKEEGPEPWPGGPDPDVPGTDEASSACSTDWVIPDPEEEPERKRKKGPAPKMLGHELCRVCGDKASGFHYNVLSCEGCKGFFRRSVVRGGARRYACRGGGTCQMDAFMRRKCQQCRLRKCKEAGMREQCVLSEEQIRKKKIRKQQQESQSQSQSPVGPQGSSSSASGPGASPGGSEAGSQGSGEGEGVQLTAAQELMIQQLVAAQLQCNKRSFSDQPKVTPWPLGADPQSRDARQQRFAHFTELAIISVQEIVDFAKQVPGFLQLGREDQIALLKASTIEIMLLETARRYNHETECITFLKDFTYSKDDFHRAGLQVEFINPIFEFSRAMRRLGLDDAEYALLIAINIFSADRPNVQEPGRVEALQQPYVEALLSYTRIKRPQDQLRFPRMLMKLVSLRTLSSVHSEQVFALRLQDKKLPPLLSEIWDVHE

This assay has as its target LXRβ (Homo sapiens (Human), UniProt P55055). Put plainly: In vitro assay LXRβ: PathHunter NHR CHO cells, LXRβ / Steroid Receptor Co-activator Peptide enzyme fragment complementation. The format is cell-based. As to conditions: PathHunter NHR CHO cells, full-length human LXRβ and SRCP, chemiluminescent signal; read-out: LXRβ PPI. As to the method:
PathHunter NHR CHO cells stably transfected with tagged full-length human LXRβ and a nuclear fusion protein containing Steroid Receptor Co-activator Peptide (SRCP). The full-length human LXRβ was tagged with the ProLink™ component of the DiscoverX Enzyme Fragment Complementation (EFC) system and the SRCP domain is fused to the enzyme acceptor component (EA) expressed in the nucleus. Cells were seeded in a total volume of 20 μL into white walled, 384-well microplates and incubated at 37° C. overnight prior to testing. Assay media contained charcoal-dextran filtered serum to reduce the level of hormones present. Final assay vehicle concentration was 1%. […] Microplates were read following signal generation with a PerkinElmer Envision instrument for chemiluminescent signal detection.
As to `C[C@H](CCC(=O)N1CCN(Cc2cnn(C)c2)CC1)[C@H]1CC[C@H]2[C@@H]3CC=C4C[C@@H](O)CC[C@]4(C)[C@H]3CC[C@]12C` [Example 223, (R)-4-((3S,8S,9S,10R,13R,14S,17R)-3-hydroxy-10,13-dimethyl-2,3,4,7,8,9,10,11,12,13,14,15,16,17-tetradecahydro-1H-cyclopenta[a]phenanthren-17-yl)-1-(4-((1-methyl-1H-pyrazol-4-yl)methyl)piperazin-1-yl)pentan-1-one], the pEC50 was less than 5.00.

Take `C[C@H]1CON(C(=O)CC[C@@H](C)[C@H]2CC[C@H]3[C@@H]4CC=C5C[C@@H](O)CC[C@]5(C)[C@H]4CC[C@]23C)C1` [Example 58, (R)-4-((3S,8S,9S,10R,13R,14S,17R)-3-hydroxy-10,13-dimethyl-2,3,4,7,8,9,10,11,12,13,14,15,16,17-tetradecahydro-1H-cyclopenta[a]phenanthren-17-yl)-1-((R)-4-methylisoxazolidin-2-yl)pentan-1-one]: the pEC50 is 6.00 to 6.60. Take `C[C@H](CCC(=O)N1CCN(c2cncnc2)CC1)[C@H]1CC[C@H]2[C@@H]3CC=C4C[C@@H](O)CC[C@]4(C)[C@H]3CC[C@]12C` [Example 222, (R)-4-((3S,8S,9S,10R,13R,14S,17R)-3-hydroxy-10,13-dimethyl-2,3,4,7,8,9,10,11,12,13,14,15,16,17-tetradecahydro-1H-cyclopenta[a]phenanthren-17-yl)-1-(4-(pyrimidin-5-yl)piperazin-1-yl)pentan-1-one]: the pEC50 was less than 5.00. The result for `CON(C)C(=O)[C@H](C)C[C@@H](C)[C@H]1CC[C@H]2[C@@H]3CC=C4C[C@@H](O)CC[C@]4(C)[C@H]3CC[C@]12C` [Example 141, (2R,4R)-4-[(1R,3aS,3bS,7S,9aR,9bS,11aR)-7-hydroxy-9a,11a-dimethyl-2,3,3a,3b,4,6,7,8,9,9a,9b,10,11,11a-tetradecahydro-1H-cyclopenta[a]phenanthren-1-yl]-N-methoxy-N,2-dimethylpentanamide] reads less than 5.00; that for `C[C@H](OC(=O)CN(C)C)[C@H]1CC[C@H]2[C@@H]3CC=C4C[C@@H](O)CC[C@]4(C)[C@H]3CC[C@]12C` [Example 143, (S)-1-((3S,8S,9S,10R,13S,14S,17S)-3-hydroxy-10,13-dimethyl-2,3,4,7,8,9,10,11,12,13,14,15,16,17-tetradecahydro-1H-cyclopenta[a]phenanthren-17-yl)ethyl dimethylglycinate], less than 5.00; that for `C[C@H](CCC(=O)N1CCN(C(=O)c2ccnnc2)CC1)[C@H]1CC[C@H]2[C@@H]3CC=C4C[C@@H](O)CC[C@]4(C)[C@H]3CC[C@]12C` [Example 312, (R)-4-((3S,8S,9S,10R,13R,14S,17R)-3-hydroxy-10,13-dimethyl-2,3,4,7,8,9,10,11,12,13,14,15,16,17-tetradecahydro-1H-cyclopenta[a]phenanthren-17-yl)-1-(4-(pyridazine-4-carbonyl)piperazin-1-yl) pentan-1-one], less than 5.00. On to `C[C@H](CCC(=O)N1CCN(c2cccnc2)CC1)[C@H]1CC[C@H]2[C@@H]3CC=C4C[C@@H](O)CC[C@]4(C)[C@H]3CC[C@]12C` [Example 306, (4R)-4-[(1R,3aS,3bS,7S,9aR,9bS,11aR)-7-hydroxy-9a,11a-dimethyl-1H,2H,3H,3aH,3bH,4H,6H,7H,8H,9H,9aH,9bH,10H,11H,11aH-cyclopenta[a]phenanthren-1-yl]-1-[4-(pyridin-3-yl)piperazin-1-yl]pentan-1-one], for which the pEC50 was less than 5.00. Regarding `C[C@H](CCC(=O)N1CCN(c2cnn(C)c2)CC1)[C@H]1CC[C@H]2[C@@H]3CC=C4C[C@@H](O)CC[C@]4(C)[C@H]3CC[C@]12C` [Example 214, (R)-4-((3S,8S,9S,10R,13R,14S,17R)-3-hydroxy-10,13-dimethyl-2,3,4,7,8,9,10,11,12,13,14,15,16,17-tetradecahydro-1H-cyclopenta[a]phenanthren-17-yl)-1-(4-(1-methyl-1H-pyrazol-4-yl)piperazin-1-yl)pentan-1-one], the pEC50 was less than 5.00.

(Values after patent US20230340011A1 (Asteroid Therapeutics, priority 2022, published 2023).)
